{
  "source": "patent USRE48461E1",
  "about": "“Modulation of androgen receptor expression” (Ionis Pharmaceuticals, Inc., priority 2012, dated 2021)",
  "key": {"AR mRNA [1]": {"system": "AR mRNA", "experiment": "Dose-dependent antisense inhibition of human AR in HuVEC cells (electroporation, qRT-PCR RTS3559, IC50)", "assay_type": "cell-based", "details": "HuVEC, ~16 h", "experimental": "(§1) After a treatment period of approximately 16 hours, RNA was isolated from the cells and AR mRNA levels were measured by quantitative real-time PCR. Human AR primer probe set RTS3559 was used to measure mRNA levels. AR mRNA levels were adjusted according to total RNA content, as measured by RIBOGREEN®. […] The antisense oligonucleotides were tested in a series of experiments that had similar culture conditions.\nas §1, §1, §1, §1\n(§2) After a treatment period of approximately 16 hours, RNA was isolated from the cells and AR mRNA levels were measured by quantitative real-time PCR. Human AR primer probe set RTS3559 was used to measure mRNA levels. AR mRNA levels were adjusted according to total RNA content, as measured by RIBOGREEN®.\nas §2"}, "AR mRNA [2]": {"system": "AR mRNA", "experiment": "Antisense inhibition of human AR in HuVEC cells, single concentration (electroporation, qRT-PCR RTS3559)", "assay_type": "cell-based", "details": "1,000 nM ASO, ~24 h, Table 13", "experimental": "Antisense oligonucleotides were designed targeting an AR nucleic acid and were tested for their effects on AR mRNA in vitro. The antisense oligonucleotides were tested in a series of experiments that had similar culture conditions. […] Human primer probe set RTS3559 (forward sequence [NT], designated herein as SEQ ID NO: 9; reverse sequence [NT], designated herein as SEQ ID NO: 10; probe sequence [NT], designated herein as SEQ ID NO: 11) was used to measure mRNA levels. AR mRNA levels were adjusted according to total RNA content, as measured by RIBOGREEN®. […] A total of 155 oligonucleotides were tested. Additional antisense oligonucleotides were designed targeting an AR nucleic acid and were tested for their effects on AR mRNA in vitro. […] Human primer probe set RTS3559 was used to measure mRNA levels. AR mRNA levels were adjusted according to total RNA content, as measured by RIBOGREEN®. […] A total of 82 oligonucleotides were tested. Additional antisense oligonucleotides were designed targeting an AR nucleic acid and were tested for their effects on AR mRNA in vitro. […] Human primer probe set RTS3559 was used to measure mRNA levels. AR mRNA levels were adjusted according to total RNA content, as measured by RIBOGREEN®. […] A total of 40 oligonucleotides were tested. Additional antisense oligonucleotides were designed targeting an AR nucleic acid and were tested for their effects on AR mRNA in vitro. […] Human primer probe set RTS3559 was used to measure mRNA levels. AR mRNA levels were adjusted according to total RNA content, as measured by RIBOGREEN®. […] A total of 75 oligonucleotides were tested. Additional antisense oligonucleotides were designed targeting an AR nucleic acid and were tested for their effects on AR mRNA in vitro. […] Human primer probe set RTS3559 was used to measure mRNA levels. AR mRNA levels were adjusted according to total RNA content, as measured by RIBOGREEN®. […] A total of 616 oligonucleotides were tested. Additional antisense oligonucleotides were designed targeting an AR nucleic acid and were tested for their effects on AR mRNA in vitro. […] Human primer probe set RTS3559 was used to measure mRNA levels. AR mRNA levels were adjusted according to total RNA content, as measured by RIBOGREEN®. […] A total of 385 oligonucleotides were tested."}},
  "note": "Oligonucleotides are written 5' to 3', each unit as a sugar letter and its base; * is a phosphorothioate linkage, no mark a phosphodiester; rarer units and linkages stand in square brackets, end groups in braces. Plain capitals give the bases only. e = 2'-O-(2-methoxyethyl) (MOE); k = constrained ethyl (cEt); [5mC] = 5-methylcytosine; d = 2'-deoxy (DNA)",
  "data": [
    {"substance": "569217 (antisense eG*kT*kT*kG*dA*dT*dT*dT*dA*dA*dT*dG*kG*kT*kT*eG) [compound 569217]", "values": [
      {"measurement": "percent inhibition of AR", "setting": "AR mRNA [1]; 62.5 nM, Table 12", "result": 34, "unit": "%"},
      {"measurement": "percent inhibition of AR", "setting": "AR mRNA [1]; 125.0 nM, Table 12", "result": 39, "unit": "%"},
      {"measurement": "percent inhibition of AR", "setting": "AR mRNA [1]; 500.0 nM, Table 12", "result": 64, "unit": "%"},
      {"measurement": "percent inhibition of AR", "setting": "AR mRNA [1]; 1000.0 nM, Table 12", "result": 64, "unit": "%"},
      {"measurement": "IC50", "setting": "AR mRNA [1]; Table 12", "result": 247, "unit": "nM"}
    ]},
    {"substance": "579669 (antisense eG*kG*kT*eT*eG*kA*kT*dT*dT*dA*dA*dT*dG*dG*kT*kT) [compound 579669]", "values": [
      {"measurement": "percent inhibition of AR", "setting": "AR mRNA [1]; 62.5 nM, Table 11", "result": 24, "unit": "%"},
      {"measurement": "percent inhibition of AR", "setting": "AR mRNA [1]; 125.0 nM, Table 11", "result": 39, "unit": "%"},
      {"measurement": "percent inhibition of AR", "setting": "AR mRNA [1]; 500.0 nM, Table 11", "result": 74, "unit": "%"},
      {"measurement": "percent inhibition of AR", "setting": "AR mRNA [1]; 1000.0 nM, Table 11", "result": 91, "unit": "%"},
      {"measurement": "IC50", "setting": "AR mRNA [1]; Table 11", "result": 207, "unit": "nM"}
    ]},
    {"substance": "579670 (antisense eT*kG*kA*eT*kT*kT*dA*dA*dT*dG*dG*dT*dT*kG*k[5mC]*kA) [compound 579670]", "values": [
      {"measurement": "percent inhibition of AR", "setting": "AR mRNA [1]; 62.5 nM, Table 11", "result": 27, "unit": "%"},
      {"measurement": "percent inhibition of AR", "setting": "AR mRNA [1]; 125.0 nM, Table 11", "result": 28, "unit": "%"},
      {"measurement": "percent inhibition of AR", "setting": "AR mRNA [1]; 500.0 nM, Table 11", "result": 75, "unit": "%"},
      {"measurement": "percent inhibition of AR", "setting": "AR mRNA [1]; 1000.0 nM, Table 11", "result": 70, "unit": "%"},
      {"measurement": "IC50", "setting": "AR mRNA [1]; Table 11", "result": 236, "unit": "nM"}
    ]},
    {"substance": "579672 (antisense eG*kT*kT*eG*kA*kT*dT*dT*dA*dA*dT*dG*dG*kT*kT*kG) [compound 579672]", "values": [
      {"measurement": "percent inhibition of AR", "setting": "AR mRNA [1]; 62.5 nM, Table 11", "result": 9, "unit": "%"},
      {"measurement": "percent inhibition of AR", "setting": "AR mRNA [1]; 125.0 nM, Table 11", "result": 30, "unit": "%"},
      {"measurement": "percent inhibition of AR", "setting": "AR mRNA [1]; 500.0 nM, Table 11", "result": 72, "unit": "%"},
      {"measurement": "percent inhibition of AR", "setting": "AR mRNA [1]; 1000.0 nM, Table 11", "result": 86, "unit": "%"},
      {"measurement": "IC50", "setting": "AR mRNA [1]; Table 11", "result": 258, "unit": "nM"}
    ]},
    {"substance": "585233 (kA*kG*kT*dT*dG*dT*dA*dG*dT*dA*dG*kT*e[5mC]*eG*e[5mC]*eG) [compound 585233]", "values": [
      {"measurement": "% inhibition", "setting": "AR mRNA [2]", "result": 69, "unit": "%"}
    ]},
    {"substance": "585259 (eA*kA*kG*kT*dT*dG*dT*dA*dG*dT*dA*dG*dT*k[5mC]*kG*k[5mC]) [compound 585259]", "values": [
      {"measurement": "% inhibition", "setting": "AR mRNA [2]", "result": 71, "unit": "%"}
    ]},
    {"substance": "585262 (kA*kA*kG*dT*dT*dG*dT*dA*dG*dT*dA*dG*kT*k[5mC]*kG*e[5mC]) [compound 585262]", "values": [
      {"measurement": "% inhibition", "setting": "AR mRNA [2]", "result": 77, "unit": "%"}
    ]},
    {"substance": "585263 (kA*kA*kG*dT*dT*dG*dT*dA*dG*dT*dA*kG*kT*k[5mC]*eG*e[5mC]) [compound 585263]", "values": [
      {"measurement": "% inhibition", "setting": "AR mRNA [2]", "result": 69, "unit": "%"}
    ]},
    {"substance": "585264 (kA*kA*kG*dT*dT*dG*dT*dA*dG*dT*kA*kG*kT*e[5mC]*eG*e[5mC]) [compound 585264]", "values": [
      {"measurement": "% inhibition", "setting": "AR mRNA [2]", "result": 62, "unit": "%"}
    ]},
    {"substance": "585265 (eA*eA*kG*kT*dT*dG*dT*dA*dG*dT*dA*dG*kT*k[5mC]*eG*e[5mC]) [compound 585265]", "values": [
      {"measurement": "% inhibition", "setting": "AR mRNA [2]", "result": 69, "unit": "%"}
    ]},
    {"substance": "585268 (kA*eA*kG*eT*dT*dG*dT*dA*dG*dT*dA*dG*eT*k[5mC]*eG*k[5mC]) [compound 585268]", "values": [
      {"measurement": "% inhibition", "setting": "AR mRNA [2]", "result": 72, "unit": "%"}
    ]},
    {"substance": "585269 (eA*kA*eG*kT*dT*dG*dT*dA*dG*dT*dA*dG*eT*k[5mC]*eG*k[5mC]) [compound 585269]", "values": [
      {"measurement": "% inhibition", "setting": "AR mRNA [2]", "result": 73, "unit": "%"}
    ]},
    {"substance": "585271 (eA*kA*kG*dT*dT*dG*dT*dA*dG*dT*dA*dG*dT*k[5mC]*kG*e[5mC]) [compound 585271]", "values": [
      {"measurement": "% inhibition", "setting": "AR mRNA [2]", "result": 57, "unit": "%"}
    ]},
    {"substance": "585274 (kA*kA*kG*dT*dT*dG*dT*dA*dG*dT*dA*dG*dT*k[5mC]*kG*e[5mC]) [compound 585274]", "values": [
      {"measurement": "% inhibition", "setting": "AR mRNA [2]", "result": 65, "unit": "%"}
    ]}
  ]
}
